Assay results published in US20100152434A1, “Protein Kinase-binding Nucleosides and Associated Methods” (priority 2007, published 2010).

How the values were obtained:
EGFR(L747-T751del,Sins) = EGFR(L747-T751del,Sins) (Homo sapiens, UniProt P00533, DEL747-750/T751S); assay: Ambit kinase phage display ATP-binding-site ligand binding assay; details: read-out: percent inhibition of binding
Text: (§4) This assay is based on ligand-affinity/protein kinase phage display and was employed essentially as described by Fabian et. al [Nature Biotech. […] In this assay, protein kinases are cloned into T7 bacteriophage which express the kinase fusion proteins on the phage capsid. T7 kinase-tagged phage are then screened for binding to ATP-binding-site ligands that have been immobilized on a solid support. Phage are screened for binding to the anchored ligands both in the presence of test compound and in its absence (control). Elution of the bound phage by free ligand (ATP-binding site ligand that is not immobilized on a solid support) followed by determination of the phage titre provides a reliable measure of the ability of test compounds to block binding of target kinases to resin-bound ATP-binding-site ligands.
(§5) T7 kinase-tagged phage strains were grown in parallel in microtiter plates in a proprietary bacterial host derived from E. Coli strain BL21. E. Coli were grown to a log phase, infected with T7 kinase-tagged phage, and incubated while shaking at 32° C. until bacterial lysis (approx. 90 min). Lysates were centrifuged (6,000 g) and filtered (0.2 μm). […] The phage titre of the eluates was measured by quantitative PCR or by plaque assays. […]

MLK1 = MLK1 (Homo sapiens, UniProt P80192); assay: as above; details: read-out: percent inhibition of binding
Text: (§6) In this assay, protein kinases are cloned into T7 bacteriophage which express the kinase fusion proteins on the phage capsid. T7 kinase-tagged phage are then screened for binding to ATP-binding-site ligands that have been immobilized on a solid support. Phage are screened for binding to the anchored ligands both in the presence of test compound and in its absence (control). Elution of the bound phage by free ligand (ATP-binding site ligand that is not immobilized on a solid support) followed by determination of the phage titre provides a reliable measure of the ability of test compounds to block binding of target kinases to resin-bound ATP-binding-site ligands.
(§7) T7 kinase-tagged phage strains were grown in parallel in microtiter plates in a proprietary bacterial host derived from E. Coli strain BL21. E. Coli were grown to a log phase, infected with T7 kinase-tagged phage, and incubated while shaking at 32° C. until bacterial lysis (approx. 90 min). Lysates were centrifuged (6,000 g) and filtered (0.2 μm). Small molecule ATP-binding-site-specific ligands were anchored to solid supports via a two step process beginning with biotin conjugation followed by treatment of the biotin/small molecule conjugate with streptavidin-coated magnetic beads. […] The phage titre of the eluates was measured by quantitative PCR or by plaque assays. […]

PAK7 = PAK7 (Homo sapiens, UniProt Q9P286); assay: SignalChem radioisotope protein kinase assay; type: biochemical; details: 5 μl of 100 μM stock solution in 25 μl
Text: (§1) The various protein kinase targets to be employed in the kinase profiling assay were cloned, expressed and purified in-house at SignalChem (Richmond, BC, Canada) using proprietary methods. Quality control testing is routinely performed on each of the SignalChem targets to ensure compliance to acceptable standards. Protein substrates employed in the target profiling process were synthesized internally. ^33P-ATP was purchased from PerkinElmer. All other materials were of standard grade. Compound 10 (FIG. 4) was supplied to SignalChem in a powder form. It was reconstituted in DMSO to form a stock solution which was then diluted with 10% DMSO to form a working stock solution (100 μM) that was then profiled against the various protein kinase targets. The assay conditions for the various protein kinase targets were optimized to yield acceptable enzymatic activity. In addition, the assays were optimized to give high signal-to-noise ratio.
(§2) SignalChem uses a radioisotope assay format for profiling evaluation of protein kinase targets. Protein kinase assays were performed in triplicate at ambient temperature for 20-40 min (depending on the target) in a final volume of 25 μl according to the following assay reaction recipe: • Component 1: 5 μl of diluted active protein kinase target (˜10-40 nM final protein concentration in the assay) • Component 2: 5 μl of stock solution of substrate (1-5 μg of peptide or protein substrate) • Component 3: 5 μl of kinase assay buffer or protein kinase activator in kinase assay buffer • Component 4: 5 μl of Compound 10 (100 μM stock solution) or 10% DMSO • Component 5: 5 μl of 33P-ATP (25 μM stock solution, 0.8 μCi)
(§3) The assay was initiated by the addition of ^33P-ATP and the reaction mixture incubated at ambient temperature for 20-40 minutes, depending on the protein kinase target. After the incubation period, the assay was terminated by spotting 10 μl of the reaction mixture onto a Millipore Multiscreen plate. The Millipore Multiscreen plate was washed 3 times for approximately 15 minutes each in a 1% phosphoric acid solution. The radioactivity on the P81 plate was counted in the presence of scintillation fluid in a Trilux scintillation counter. Blank control, which included all the assay components except the addition of the appropriate substrate (replaced with equal volume of assay dilution buffer), was set up for each protein kinase target. The corrected activity for each protein kinase target was determined by removing the blank control value.

RSK1 = molecular target: T1, RSK1 (Homo sapiens, UniProt Q15418); assay: SignalChem radioisotope protein kinase assay; type: biochemical; details: 5 μl of 100 μM stock solution in 25 μl
T1 construct: purchased SignalChem
Text: as §1, §2, §3

LCK = LCK (Homo sapiens, UniProt P06239); assay: SignalChem radioisotope protein kinase assay; type: biochemical; details: 5 μl of 100 μM stock solution in 25 μl
Text: as §1, §2, §3

RSK3 = molecular target: T2, RSK3 (Homo sapiens, UniProt Q15349); assay: SignalChem radioisotope protein kinase assay; type: biochemical; details: 5 μl of 100 μM stock solution in 25 μl
T2 construct: purchased SignalChem
Text: as §1, §2, §3

p70S6K = p70S6K (Homo sapiens, UniProt P23443); assay: SignalChem radioisotope protein kinase assay; type: biochemical; details: 5 μl of 100 μM stock solution in 25 μl
Text: as §1, §2, §3

KDR = KDR (Homo sapiens, UniProt P35968); assay: SignalChem radioisotope protein kinase assay; type: biochemical; details: 5 μl of 100 μM stock solution in 25 μl
Text: as §1, §2, §3

PIM2 = PIM2 (Homo sapiens, UniProt Q9P1W9); assay: SignalChem radioisotope protein kinase assay; type: biochemical; details: 5 μl of 100 μM stock solution in 25 μl
Text: as §1, §2, §3

LYN B = LYN B (Homo sapiens, UniProt P07948); assay: SignalChem radioisotope protein kinase assay; type: biochemical; details: 5 μl of 100 μM stock solution in 25 μl
Text: as §1, §2, §3

AKT1 = AKT1 (Homo sapiens, UniProt P31749); assay: SignalChem radioisotope protein kinase assay; type: biochemical; details: 5 μl of 100 μM stock solution in 25 μl
Text: as §1, §2, §3

FGR = FGR (Homo sapiens, UniProt P09769); assay: SignalChem radioisotope protein kinase assay; type: biochemical; details: 5 μl of 100 μM stock solution in 25 μl
Text: as §1, §2, §3

RSK2 = molecular target: T3, RSK2 (Homo sapiens, UniProt P51812); assay: SignalChem radioisotope protein kinase assay; type: biochemical; details: 5 μl of 100 μM stock solution in 25 μl
T3 construct: purchased SignalChem
Text: as §1, §2, §3

AURORA A = AURORA A (Homo sapiens, UniProt O14965); assay: SignalChem radioisotope protein kinase assay; type: biochemical; details: 5 μl of 100 μM stock solution in 25 μl
Text: as §1, §2, §3

SGK1 = molecular target: T4, SGK1 (Homo sapiens, UniProt O00141); assay: SignalChem radioisotope protein kinase assay; type: biochemical; details: 5 μl of 100 μM stock solution in 25 μl
T4 construct: purchased SignalChem
Text: as §1, §2, §3

HCK = HCK (Homo sapiens, UniProt P08631); assay: SignalChem radioisotope protein kinase assay; type: biochemical; details: 5 μl of 100 μM stock solution in 25 μl
Text: as §1, §2, §3

HER2 = HER2 (Homo sapiens, UniProt P04626); assay: SignalChem radioisotope protein kinase assay; type: biochemical; details: 5 μl of 100 μM stock solution in 25 μl
Text: as §1, §2, §3

MEK1 = MEK1 (Homo sapiens, UniProt Q02750); assay: SignalChem radioisotope protein kinase assay; type: biochemical; details: 5 μl of 100 μM stock solution in 25 μl
Text: as §1, §2, §3

AKT2 = AKT2 (Homo sapiens, UniProt P31751); assay: SignalChem radioisotope protein kinase assay; type: biochemical; details: 5 μl of 100 μM stock solution in 25 μl
Text: as §1, §2, §3

PDGFRβ = PDGFRβ (Homo sapiens, UniProt P09619); assay: SignalChem radioisotope protein kinase assay; type: biochemical; details: 5 μl of 100 μM stock solution in 25 μl
Text: as §1, §2, §3

BRAF = BRAF (Homo sapiens, UniProt P15056); assay: SignalChem radioisotope protein kinase assay; type: biochemical; details: 5 μl of 100 μM stock solution in 25 μl
Text: as §1, §2, §3

ERK1 = ERK1 (Homo sapiens, UniProt P27361); assay: SignalChem radioisotope protein kinase assay; type: biochemical; details: 5 μl of 100 μM stock solution in 25 μl
Text: as §1, §2, §3

P38γ = P38γ (Homo sapiens, UniProt P53778); assay: SignalChem radioisotope protein kinase assay; type: biochemical; details: 5 μl of 100 μM stock solution in 25 μl
Text: as §1, §2, §3

FRK = FRK (Homo sapiens, UniProt P42685); assay: SignalChem radioisotope protein kinase assay; type: biochemical; details: 5 μl of 100 μM stock solution in 25 μl
Text: as §1, §2, §3

CIT = CIT (Homo sapiens, UniProt O14578); assay: Ambit kinase phage display ATP-binding-site ligand binding assay; details: read-out: percent inhibition of binding
Text: as §6, §7

CSNK2A2 = CSNK2A2 (Homo sapiens, UniProt P19784); assay: as above; details: read-out: % Inhibition of binding to ATP-binding-site ligand
Text: as §4, §5

MET = MET (Homo sapiens, UniProt P08581); assay: as above; details: read-out: percent inhibition of binding
Text: as §4, §5

Chain of MLK1 (P80192 whole entry): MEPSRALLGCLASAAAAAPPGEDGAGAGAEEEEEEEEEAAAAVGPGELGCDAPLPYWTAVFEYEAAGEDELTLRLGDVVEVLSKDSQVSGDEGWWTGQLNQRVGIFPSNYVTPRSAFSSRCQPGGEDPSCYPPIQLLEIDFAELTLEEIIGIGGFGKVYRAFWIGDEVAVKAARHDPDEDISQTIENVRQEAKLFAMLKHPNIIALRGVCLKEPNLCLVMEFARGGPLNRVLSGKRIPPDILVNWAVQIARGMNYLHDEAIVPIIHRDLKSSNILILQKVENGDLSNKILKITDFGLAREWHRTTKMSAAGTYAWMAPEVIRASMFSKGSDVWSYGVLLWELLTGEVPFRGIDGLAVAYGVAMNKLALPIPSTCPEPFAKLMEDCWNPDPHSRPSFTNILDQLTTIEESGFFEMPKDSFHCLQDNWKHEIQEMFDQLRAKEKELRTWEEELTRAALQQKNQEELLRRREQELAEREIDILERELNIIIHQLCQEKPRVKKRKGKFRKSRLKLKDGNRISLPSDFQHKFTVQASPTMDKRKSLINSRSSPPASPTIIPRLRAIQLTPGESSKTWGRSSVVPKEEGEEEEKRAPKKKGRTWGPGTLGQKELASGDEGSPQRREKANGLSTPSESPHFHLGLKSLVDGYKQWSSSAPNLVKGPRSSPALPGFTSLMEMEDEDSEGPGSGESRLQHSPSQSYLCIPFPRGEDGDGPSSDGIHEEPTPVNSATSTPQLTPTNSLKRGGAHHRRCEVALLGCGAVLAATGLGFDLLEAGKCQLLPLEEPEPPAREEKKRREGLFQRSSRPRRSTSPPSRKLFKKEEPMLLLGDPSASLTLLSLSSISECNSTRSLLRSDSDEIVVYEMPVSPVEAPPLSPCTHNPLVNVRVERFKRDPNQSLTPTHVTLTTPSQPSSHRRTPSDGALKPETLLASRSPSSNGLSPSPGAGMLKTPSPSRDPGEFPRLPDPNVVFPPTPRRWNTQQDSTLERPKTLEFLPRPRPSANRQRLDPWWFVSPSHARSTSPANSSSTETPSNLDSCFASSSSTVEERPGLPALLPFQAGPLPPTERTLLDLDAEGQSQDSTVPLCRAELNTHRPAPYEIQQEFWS
Chain of HER2 (P04626 23-1255, species assumed): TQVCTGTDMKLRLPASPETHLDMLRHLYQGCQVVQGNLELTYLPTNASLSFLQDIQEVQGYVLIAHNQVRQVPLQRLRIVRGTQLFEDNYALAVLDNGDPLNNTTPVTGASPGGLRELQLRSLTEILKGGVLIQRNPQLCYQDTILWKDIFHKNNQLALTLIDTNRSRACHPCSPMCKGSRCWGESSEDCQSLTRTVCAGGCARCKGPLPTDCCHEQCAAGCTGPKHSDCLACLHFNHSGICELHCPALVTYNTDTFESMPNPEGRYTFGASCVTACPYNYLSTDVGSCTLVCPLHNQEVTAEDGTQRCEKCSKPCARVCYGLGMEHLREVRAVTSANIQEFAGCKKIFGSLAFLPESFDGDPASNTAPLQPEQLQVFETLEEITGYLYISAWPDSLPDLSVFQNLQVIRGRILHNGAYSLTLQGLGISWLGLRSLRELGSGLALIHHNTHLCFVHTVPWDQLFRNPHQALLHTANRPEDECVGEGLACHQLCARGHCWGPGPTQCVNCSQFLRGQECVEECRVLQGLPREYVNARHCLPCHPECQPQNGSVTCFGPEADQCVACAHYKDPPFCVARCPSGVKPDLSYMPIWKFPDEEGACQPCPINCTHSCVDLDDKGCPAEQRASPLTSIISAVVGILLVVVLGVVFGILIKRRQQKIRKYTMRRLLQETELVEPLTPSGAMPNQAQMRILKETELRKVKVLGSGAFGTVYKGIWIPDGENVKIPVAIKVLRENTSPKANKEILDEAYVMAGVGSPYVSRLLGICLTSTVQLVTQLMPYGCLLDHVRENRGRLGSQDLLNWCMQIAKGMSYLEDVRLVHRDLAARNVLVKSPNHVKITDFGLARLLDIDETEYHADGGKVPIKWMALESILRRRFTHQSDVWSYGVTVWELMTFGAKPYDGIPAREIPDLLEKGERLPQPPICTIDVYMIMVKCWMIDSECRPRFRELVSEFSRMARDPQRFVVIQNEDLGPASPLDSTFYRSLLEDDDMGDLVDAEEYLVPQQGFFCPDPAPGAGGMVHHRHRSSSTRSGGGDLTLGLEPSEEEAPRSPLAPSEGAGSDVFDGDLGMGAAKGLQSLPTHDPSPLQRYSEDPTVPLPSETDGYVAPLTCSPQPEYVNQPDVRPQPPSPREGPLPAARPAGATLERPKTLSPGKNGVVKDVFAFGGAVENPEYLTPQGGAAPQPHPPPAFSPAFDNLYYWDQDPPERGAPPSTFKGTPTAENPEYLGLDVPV
T4 sequence (O00141 whole entry, species assumed): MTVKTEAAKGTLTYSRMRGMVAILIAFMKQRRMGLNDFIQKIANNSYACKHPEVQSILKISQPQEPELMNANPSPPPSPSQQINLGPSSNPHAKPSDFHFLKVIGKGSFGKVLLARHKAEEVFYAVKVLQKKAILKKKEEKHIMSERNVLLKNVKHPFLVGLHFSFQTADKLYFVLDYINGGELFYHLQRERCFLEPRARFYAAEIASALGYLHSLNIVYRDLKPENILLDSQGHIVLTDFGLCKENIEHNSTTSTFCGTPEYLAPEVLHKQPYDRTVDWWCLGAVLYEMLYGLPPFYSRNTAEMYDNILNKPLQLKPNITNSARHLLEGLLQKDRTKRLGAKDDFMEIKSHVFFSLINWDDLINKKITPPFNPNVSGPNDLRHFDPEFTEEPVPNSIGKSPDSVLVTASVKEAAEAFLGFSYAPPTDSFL
Chain of FRK (P42685 whole entry, species assumed): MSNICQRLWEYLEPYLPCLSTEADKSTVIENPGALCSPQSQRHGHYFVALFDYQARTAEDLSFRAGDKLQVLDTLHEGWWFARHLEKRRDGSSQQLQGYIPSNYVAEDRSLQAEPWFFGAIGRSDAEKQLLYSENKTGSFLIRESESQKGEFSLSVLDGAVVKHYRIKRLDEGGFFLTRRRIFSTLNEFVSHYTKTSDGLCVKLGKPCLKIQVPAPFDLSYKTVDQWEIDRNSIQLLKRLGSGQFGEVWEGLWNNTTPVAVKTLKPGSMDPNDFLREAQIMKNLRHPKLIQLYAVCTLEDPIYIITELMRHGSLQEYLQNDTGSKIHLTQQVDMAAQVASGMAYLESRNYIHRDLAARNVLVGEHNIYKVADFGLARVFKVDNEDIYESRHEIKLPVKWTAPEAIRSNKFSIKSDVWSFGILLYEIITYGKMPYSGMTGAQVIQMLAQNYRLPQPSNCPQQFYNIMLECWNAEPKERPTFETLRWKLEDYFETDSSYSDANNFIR
T2 sequence (Q15349 whole entry, species assumed): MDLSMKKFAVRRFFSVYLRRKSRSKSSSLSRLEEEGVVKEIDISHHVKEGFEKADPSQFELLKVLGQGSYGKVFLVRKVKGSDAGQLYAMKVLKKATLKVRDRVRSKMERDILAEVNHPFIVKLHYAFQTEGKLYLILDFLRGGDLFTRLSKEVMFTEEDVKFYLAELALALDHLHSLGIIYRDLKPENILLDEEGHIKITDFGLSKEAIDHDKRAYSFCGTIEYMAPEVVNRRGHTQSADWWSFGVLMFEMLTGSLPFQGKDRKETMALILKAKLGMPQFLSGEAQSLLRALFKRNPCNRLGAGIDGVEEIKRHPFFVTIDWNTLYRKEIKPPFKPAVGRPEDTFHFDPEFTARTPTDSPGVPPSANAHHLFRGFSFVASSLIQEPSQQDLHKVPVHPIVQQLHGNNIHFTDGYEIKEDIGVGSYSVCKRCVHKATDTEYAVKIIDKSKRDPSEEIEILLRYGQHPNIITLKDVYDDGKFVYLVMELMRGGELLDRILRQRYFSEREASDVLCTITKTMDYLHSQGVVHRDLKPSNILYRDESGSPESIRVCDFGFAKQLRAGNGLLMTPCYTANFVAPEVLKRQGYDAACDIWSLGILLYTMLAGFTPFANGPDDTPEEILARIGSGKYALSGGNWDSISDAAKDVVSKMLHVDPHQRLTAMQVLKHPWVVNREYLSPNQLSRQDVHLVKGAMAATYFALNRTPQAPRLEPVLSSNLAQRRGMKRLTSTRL
Chain of p70S6K (P23443 whole entry): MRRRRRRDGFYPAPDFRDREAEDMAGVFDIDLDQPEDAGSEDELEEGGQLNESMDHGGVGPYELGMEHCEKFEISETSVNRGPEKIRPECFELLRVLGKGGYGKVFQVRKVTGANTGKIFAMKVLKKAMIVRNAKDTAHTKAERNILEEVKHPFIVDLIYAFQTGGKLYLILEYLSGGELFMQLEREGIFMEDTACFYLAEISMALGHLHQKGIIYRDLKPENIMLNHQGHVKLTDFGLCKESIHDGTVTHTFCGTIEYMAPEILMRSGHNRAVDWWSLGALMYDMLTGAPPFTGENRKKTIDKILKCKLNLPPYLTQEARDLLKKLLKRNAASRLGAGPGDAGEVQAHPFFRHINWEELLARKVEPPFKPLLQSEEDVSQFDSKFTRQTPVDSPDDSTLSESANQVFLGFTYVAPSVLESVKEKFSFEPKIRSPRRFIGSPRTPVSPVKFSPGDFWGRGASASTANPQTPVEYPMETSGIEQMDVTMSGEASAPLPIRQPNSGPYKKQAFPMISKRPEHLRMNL
Chain of AKT2 (P31751 whole entry, species assumed): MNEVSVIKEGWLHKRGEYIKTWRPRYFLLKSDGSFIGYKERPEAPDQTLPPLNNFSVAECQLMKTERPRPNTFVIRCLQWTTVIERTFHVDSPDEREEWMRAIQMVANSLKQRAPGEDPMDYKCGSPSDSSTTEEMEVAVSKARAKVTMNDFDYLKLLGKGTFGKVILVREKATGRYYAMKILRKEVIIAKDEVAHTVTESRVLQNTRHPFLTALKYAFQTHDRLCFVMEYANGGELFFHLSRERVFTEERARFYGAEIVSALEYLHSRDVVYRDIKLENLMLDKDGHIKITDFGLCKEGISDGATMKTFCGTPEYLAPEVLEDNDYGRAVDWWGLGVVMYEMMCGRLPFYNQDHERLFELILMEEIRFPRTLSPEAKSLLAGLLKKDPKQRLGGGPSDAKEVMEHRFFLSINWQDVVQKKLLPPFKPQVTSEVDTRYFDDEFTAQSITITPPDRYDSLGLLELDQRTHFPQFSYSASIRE

CCOC(=O)C[C@@H]1C(O[Si](C)(C)C(C)(C)C)[C@H](n2cnc3c(NC(=O)Nc4ccccc4)ncnc32)O[C@@H]1CNC(=O)NC (stereo partly drawn) [Compound 10]
inhibition at 10 µM (EGFR(L747-T751del,Sins)): 20 to 29%
inhibition at 10 µM (MLK1): 20 to 29%
% Activity Change (PAK7): 21%
% Activity Change (RSK1): 4%
% Activity Change (LCK): 30%
% Activity Change (RSK3): 10%
% Activity Change (p70S6K): −1%
% Activity Change (KDR): 2%
% Activity Change (PIM2): 18%
% Activity Change (LYN B): 12%
% Activity Change (AKT1): 2%
% Activity Change (FGR): 3%
% Activity Change (RSK2): −4%
% Activity Change (AURORA A): 1%
% Activity Change (SGK1): 36%
% Activity Change (HCK): 18%
% Activity Change (HER2): 4%
% Activity Change (MEK1): 8%
% Activity Change (AKT2): 27%
% Activity Change (PDGFRβ): −7%
% Activity Change (BRAF): 1%
% Activity Change (ERK1): 6%
% Activity Change (P38γ): 14%
% Activity Change (FRK): 24%
inhibition at 10 µM (CIT): 20 to 29%
inhibition at 10 µM (CSNK2A2): 31%
inhibition at 10 µM (MET): 20 to 29%
